Reference: US20230092890A1, “1, 3, 4-Oxadiazole derivative compounds as histone deacetylase 6 inhibitor, and the pharmaceutical composition comprising the same” (Chong Kun Dang Pharmaceutical Corp., priority 2019, published 2023)

Tests used:
HDAC6 human recombinant = molecular target: T1, HDAC6 human recombinant (Homo sapiens, UniProt Q9UBN7); assay: HDAC enzyme activity inhibition (in vitro), HDAC6 assay; type: biochemical; conditions: samples at 0.1, 1, 10, 100 and 1000 nM; 37° C. 60 minutes; fluorescence Ex 390, Em 460; read-out: HDAC6 IC50
T1 construct: purchased Calbiochem 382180
T1 sequence (Q9UBN7 1-1215): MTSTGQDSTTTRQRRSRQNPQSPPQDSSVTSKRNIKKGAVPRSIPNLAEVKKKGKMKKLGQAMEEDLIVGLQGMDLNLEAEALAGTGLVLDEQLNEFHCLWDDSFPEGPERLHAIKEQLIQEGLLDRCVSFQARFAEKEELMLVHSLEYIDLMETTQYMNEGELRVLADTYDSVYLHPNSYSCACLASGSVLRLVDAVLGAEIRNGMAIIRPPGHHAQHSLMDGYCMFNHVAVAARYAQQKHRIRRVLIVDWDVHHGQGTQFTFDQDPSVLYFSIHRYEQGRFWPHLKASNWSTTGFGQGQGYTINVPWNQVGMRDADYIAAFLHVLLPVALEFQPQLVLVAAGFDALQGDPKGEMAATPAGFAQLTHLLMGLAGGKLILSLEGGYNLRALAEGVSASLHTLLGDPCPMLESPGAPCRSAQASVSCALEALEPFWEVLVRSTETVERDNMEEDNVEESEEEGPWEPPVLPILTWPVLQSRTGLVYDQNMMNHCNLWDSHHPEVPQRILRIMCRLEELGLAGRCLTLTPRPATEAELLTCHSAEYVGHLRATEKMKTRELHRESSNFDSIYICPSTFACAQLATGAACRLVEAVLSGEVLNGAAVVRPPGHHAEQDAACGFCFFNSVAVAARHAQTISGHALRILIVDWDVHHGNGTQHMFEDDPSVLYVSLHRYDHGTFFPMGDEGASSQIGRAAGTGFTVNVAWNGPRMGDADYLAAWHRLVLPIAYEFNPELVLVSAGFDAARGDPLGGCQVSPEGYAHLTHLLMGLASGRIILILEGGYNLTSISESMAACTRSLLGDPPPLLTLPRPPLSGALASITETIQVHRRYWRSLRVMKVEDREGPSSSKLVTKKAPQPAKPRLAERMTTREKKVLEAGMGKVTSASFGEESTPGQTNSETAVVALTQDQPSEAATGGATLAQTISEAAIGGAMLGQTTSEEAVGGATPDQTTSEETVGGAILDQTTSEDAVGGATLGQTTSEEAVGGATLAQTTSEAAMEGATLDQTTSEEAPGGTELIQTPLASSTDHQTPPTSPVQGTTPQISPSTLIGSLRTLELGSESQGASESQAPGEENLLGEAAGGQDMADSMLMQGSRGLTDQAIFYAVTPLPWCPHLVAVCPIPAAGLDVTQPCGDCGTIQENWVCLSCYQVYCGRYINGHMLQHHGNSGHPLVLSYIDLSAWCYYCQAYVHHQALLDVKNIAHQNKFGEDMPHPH
Procedure, shortened: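 Fluorescence (Ex 390, Em 460) read after a 37° C, 60 min enzyme reaction and a further 30 min developer step at 37° C. Uses recombinant human HDAC6; HDAC1 arm dosed at 100, 1000, 10000 nM.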

HDAC1 = molecular target: T2, HDAC1 (Homo sapiens, UniProt Q13547); assay: HDAC enzyme activity inhibition (in vitro), HDAC1 Fluorimetric Drug Discovery Assay Kit; type: biochemical; conditions: samples at 100, 1000 and 10000 nM; 37° C. 60 minutes; fluorescence Ex 390, Em 460; read-out: HDAC1 IC50
T2 construct: purchased Enzolifesciences BML-AK511
Procedure, shortened: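 Each sample reacted with enzyme for 60 min at 37° C before a 30-min developer step at the same temperature. HDAC1 doses spanned 100 to 10000 nM. Fluorescent signal was read at Ex 390/Em 460.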

T2 sequence (Q13547 whole entry): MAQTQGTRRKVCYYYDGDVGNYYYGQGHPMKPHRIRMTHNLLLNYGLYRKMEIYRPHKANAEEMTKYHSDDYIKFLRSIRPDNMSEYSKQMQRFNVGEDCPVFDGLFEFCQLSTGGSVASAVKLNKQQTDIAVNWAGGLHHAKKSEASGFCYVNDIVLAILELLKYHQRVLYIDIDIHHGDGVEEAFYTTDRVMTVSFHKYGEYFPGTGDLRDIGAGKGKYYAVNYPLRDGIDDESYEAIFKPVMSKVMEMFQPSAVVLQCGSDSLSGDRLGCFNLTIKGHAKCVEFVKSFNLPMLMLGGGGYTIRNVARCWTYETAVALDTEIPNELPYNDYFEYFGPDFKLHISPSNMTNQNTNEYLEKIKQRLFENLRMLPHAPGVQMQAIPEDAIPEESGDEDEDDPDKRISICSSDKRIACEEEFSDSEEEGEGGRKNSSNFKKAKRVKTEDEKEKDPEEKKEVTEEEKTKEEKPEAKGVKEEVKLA

Row | IC50 (HDAC6 human recombinant) [nM] | IC50 (HDAC1) [nM] | Structure (SMILES)
1 | 59 | > 10000 | Cn1c(=O)n(Cc2ccc(-c3nnc(C(F)F)o3)cn2)c2cc(F)c(N3CCN(CC(F)(F)F)CC3)cc21 [Compound 263, 1-((5-(5-(difluoromethyl)-1,3,4-oxadiazole-2-yl)pyridine-2-yl)methyl)-6-fluoro-3-methy 1-5-(4-(2,2,2-trifluoroethyl)piperazine-1-yl)-1,3-dihydro-2H-benzo[d]imidazole-2-one]
2 | 19 | > 10000 | CN1CC[C@H](n2c(=O)n(Cc3ccc(-c4nnc(C(F)F)o4)cn3)c3cc(F)c(-c4cccc5[nH]ccc45)cc32)C1 [Compound 270, (S)-1-((5-(5-(difluoromethyl)-1,3,4-oxadiazole-2-yl)pyridine-2-yl)methyl)-6-fluoro-5-(1H-indole-4-yl)-3-(1-methylpyrrolidine-3-yl)-1,3-dihydro-2H-benzo[d]imidazole-2-one]
3 | 51 | > 10000 | O=c1n(Cc2ccc(-c3nnc(C(F)F)o3)cn2)c2cc(F)c(-c3cccc4[nH]ccc34)cc2n1C1CCN(CC(F)(F)F)CC1 [Compound 239, 1-((5-(5-(difluoromethyl)-1,3,4-oxadiazole-2-yl)pyridine-2-yl)methyl)-6-fluoro-5-(1H-indole-4-yl)-3-(1-(2,2,2-trifluoroethyl)piperidine-4-yl)-1,3-dihydro-2H-benzo[d]imidazole-2-one]
4 | 672 | > 10000 | CC(C)(C)OC(=O)N1CCN(c2ncc(-c3cc4oc(=O)n(Cc5ccc(-c6nnc(C(F)F)o6)cn5)c4cc3F)cn2)CC1 [Compound 337, tert-butyl 4-(5-(3-((5-(5-(difluoromethyl)-1,3,4-oxadiazole-2-yl)pyridine-2-yl)methyl)-5-fluoro-2-oxo-2,3-dihydrobenzo[d]oxazole-6-yl)pyrimidine-2-yl)piperazine-1-carboxylate]
5 | 112 | > 10000 | O=c1oc2cc(C3CCN(C4COC4)CC3)ccc2n1Cc1ccc(-c2nnc(C(F)F)o2)cn1 [Compound 314, 3-((5-(5-(difluoromethyl)-1,3,4-oxadiazole-2-yl)pyridine-2-yl)methyl)-6-(1-(oxetan-3-yl)piperidine-4-yl)benzo[d]oxazole-2(3H)-one]
6 | 6 | > 10000 | CN1CCC(n2c(=O)n(Cc3ccc(-c4nnc(C(F)F)o4)cn3)c3cc(F)c(-c4cn[nH]c4)cc32)CC1 [Compound 248, 1-((5-(5-(difluoromethyl)-1,3,4-oxadiazole-2-yl)pyridine-2-yl)methyl)-6-fluoro-3-(1-methylpiperidine-4-yl)-5-(1H-pyrazole-4-yl)-1,3-dihydro-2H-benzo[d]imidazole-2-one]

More lines, now with the values behind:

Row | Structure (SMILES) | IC50 (HDAC6 human recombinant) [nM] | IC50 (HDAC1) [nM]
7 | CC(C)(C)OC(=O)N1CC=C(c2ccc3c(c2)sc(=O)n3Cc2ccc(-c3nnc(C(F)F)o3)cn2)CC1 [Compound 238, tert-butyl 4-(3-((5-(5-(difluoromethyl)-1,3,4-oxadiazole-2-yl)pyridine-2-yl)methyl)-2-oxo-2,3-dihydrobenzo[d]thiazole-6-yl)-3,6-dihydropyridine-1(2H)-carboxylate] | 203 | > 10000
8 | Cn1c(=O)n(Cc2ccc(-c3nnc(C(F)F)o3)cn2)c2ccc(-c3ccsc3)cc21 [Compound 219, 1-((5-(5-(difluoromethyl)-1,3,4-oxadiazole-2-yl)pyridine-2-yl)methyl)-3-methyl-5-(thiophene-3-yl)-1,3-dihydro-2H-benzo[d]imidazole-2-one] | 33 | > 10000
9 | CN1CCC(n2c(=O)n(Cc3ccc(-c4nnc(C(F)F)o4)cn3)c3cc(F)c(-c4ccccc4F)cc32)CC1 [Compound 152, 1-((5-(5-(difluoromethyl)-1,3,4-oxadiazole-2-yl)pyridine-2-yl)methyl)-6-fluoro-5-(2-fluorophenyl)-3-(1-methylpiperidine-4-yl)-1,3-dihydro-2H-benzo[d]imidazole-2-one] | 34 | > 10000
10 | O=c1n(Cc2ccc(-c3nnc(C(F)F)o3)cn2)c2cc(F)ccc2n1C1CCN(C2COC2)CC1 [Compound 53, 3-((5-(5-(difluoromethyl)-1,3,4-oxadiazole-2-yl)pyridine-2-yl)methyl)-5-fluoro-1-(1-(oxetan-3-yl)piperidine-4-yl)-1,3-dihydro-2H-benzo[d]imidazole-2-one] | 37 | > 10000
11 | CS(=O)(=O)N1CCC(n2c(=O)n(Cc3ccc(-c4nnc(C(F)F)o4)cn3)c3c(F)cccc32)CC1 [Compound 191, 3-((5-(5-(difluoromethyl)-1,3,4-oxadiazole-2-yl)pyridine-2-yl)methyl)-4-fluoro-1-(1-(methylsulfonyl)piperidine-4-yl)-1,3-dihydro-2H-benzo[d]imidazole-2-one] | 37 | > 10000
12 | Cn1c(=O)n(Cc2ccc(-c3nnc(C(F)F)o3)cn2)c2ccc(-c3ccn[nH]3)cc21 [Compound 221, 1-((5-(5-(difluoromethyl)-1,3,4-oxadiazole-2-yl)pyridine-2-yl)methyl)-3-methyl-5-(1H-pyrazole-5-yl)-1,3-dihydro-2H-benzo[d]imidazole-2-one] | 8 | > 10000
13 | Cc1ccc(-c2ccc3c(c2)n(Cc2ccc(-c4nnc(C(F)F)o4)cc2F)c(=O)n3C2CCN(C)CC2)o1 [Compound 124, 3-(4-(5-(difluoromethyl)-1,3,4-oxadiazole-2-yl)-2-fluorobenzyl)-5-(5-methylfuran-2-yl)-1-(1-methylpiperidine-4-yl)-1,3-dihydro-2H-benzo[d]imidazole-2-one] | 950 | > 10000
14 | CN1CCC(n2c(=O)n(Cc3ccc(-c4nnc(C(F)F)o4)cn3)c3ccc(-c4cnoc4)cc32)CC1 [Compound 211, 1-((5-(5-(difluoromethyl)-1,3,4-oxadiazole-2-yl)pyridine-2-yl)methyl)-5-(isoxazole-4-yl)-3-(1-methylpiperidine-4-yl)-1,3-dihydro-2H-benzo[d]imidazole-2-one] | 48 | > 10000
15 | CN1CCC(n2c(=O)n(Cc3ccc(-c4nnc(C(F)F)o4)cn3)c3cc(Cl)c(Cl)cc32)CC1 [Compound 81, 5,6-dichloro-1-((5-(5-(difluoromethyl)-1,3,4-oxadiazole-2-yl)pyridine-2-yl)methyl)-3-(1-methylpiperidine-4-yl)-1,3-dihydro-2H-benzo[d]imidazole-2-one] | 15 | > 10000
16 | CN1CCC(n2c(=O)n(Cc3ccc(-c4nnc(C(F)F)o4)cc3)c3cc(-c4cccnc4)ccc32)CC1 [Compound 132, 3-(4-(5-(difluoromethyl)-1,3,4-oxadiazole-2-yl)benzyl)-1-(1-methylpiperidine-4-yl)-5-(pyridine-3-yl)-1,3-dihydro-2H-benzo[d]imidazole-2-one] | 281 | > 10000
17 | CN1CCC(n2c(=O)n(Cc3ccc(-c4nnc(C(F)F)o4)cn3)c3ccc(F)cc32)CC1 [Compound 43, 1-((5-(5-(difluoromethyl)-1,3,4-oxadiazole-2-yl)pyridine-2-yl)methyl)-5-fluoro-3-(1-methylpiperidine-4-yl)-1,3-dihydro-2H-benzo[d]imidazole-2-one] | 121 | > 10000
18 | CN1CCC(n2c(=O)n(Cc3ccc(-c4nnc(C(F)F)o4)cc3F)c3ccc(C4CCN(C(=O)CO)CC4)cc32)CC1 [Compound 179, 1-(4-(5-(difluoromethyl)-1,3,4-oxadiazole-2-yl)-2-fluorobenzyl)-5-(1-(2-hydroxyacetyl)piperidine-4-yl)-3-(1-methylpiperidine-4-yl)-1,3-dihydro-2H-benzo[d]imidazole-2-one] | 145 | > 10000
